Measurements reported in patent US20250059166A1, “PIPERIDINYLPYRIDINYLCARBONITRILE DERIVATIVES AS INHIBITORS OF GLUTAMINYL-PEPTIDE CYCLOTRANSFERASE AND GLUTAMINYL-PEPTIDE CYCLOTRANSFERASE LIKE PROTEIN” (Boehringer Ingelheim International GmbH, priority 2023, published 2025).
Like-named read-outs stand apart in the source and are kept apart here.

Experiments:
[1] = test system: SIRPα signalling induced by A549 cells; assay: Assay B: SIRPα signalling assay using A549 cells; assay type: cell-based; conditions: Homo sapiens
Method: (§1) Two cell types are independently used: the Raji cell line (lymphoblast-like human cell line derived from B lymphocytes from a Burkitt's lymphoma patient in 1963) and A549 cells (adenocarcinoma human alveolar basal epithelial cells).
(§2) Test compounds were dissolved in 100% DMSO and serially diluted into a white 384-well microtiter cell culture plate (PerkinElmer #60076780 in case of Raji assay; PDL-coated plates Greiner #781945 in case of A549 assay). 5000 Raji cells (ATCC #CC86) or 5000 A549 cells (ATCC #CCL-185) in Assay Complete Cell Plating reagent 30 (DiscoverX 93-0563R30B) were added per well. The assay plate was incubated for 48 h at 37° C., 95% humidity and 5% CO2. 15000 reporter cells (Jurkat PathHunter SIRPαV1, DiscoverX #93-1135C19) were added to each well, and the plate was incubated for 5 h at 37° C., 95% humidity and 5% CO2. Bioassay reagent 1 of the PathHunter Bioassay detection kit (DiscoverX 93-0001) was added to each well of the plate using a multichannel pipette followed by a 15 min incubation at room temperature. Afterwards bioassay reagent 2 was added followed by 60 min incubation at room temperature (incubation in the dark).
(§3) The analysis of the data was performed using the luminescence signal generated by beta-galactosidase in the PathHunter reporter cell line. The luminescence measurement was done using a Pherastar Multi-Mode Reader. Dose-response curves & IC50 data were calculated with 4-parameter sigmoidal dose response formula.

[2] = test system: SIRPα signalling induced by Raji cells; assay: Assay B: SIRPα signalling assay using Raji cells; assay type: cell-based; conditions: Homo sapiens, read-out: Inhibition of SIRPα signalling induced by Raji cells: IC50
Method: as §1, §2, §3

[3] = Assay C: permeability in CACO-2 cells; assay type: in vitro ADME; conditions: human
Method: Caco-2 cells (1-2×10^5 cells/1 cm^2 area) are seeded on filter inserts (Costar transwell polycarbonate or PET filters, 0.4 μm pore size) and cultured (DMEM) for 10 to 25 days. Compounds are dissolved in appropriate solvent (like DMSO, 1-20 mM stock solutions). […] The transport solution (TL) is applied to the apical or basolateral donor side for measuring A-B or B-A permeability (3 filter replicates), respectively. Samples are collected at the start and end of experiment from the donor and at various time intervals for up to 2 hours also from the receiver side for concentration measurement by HPLC-MS/MS or scintillation counting. Sampled receiver volumes are replaced with fresh receiver solution.
Efflux ratio(ER)=permeabilityB−A/permeabilityA−B

QPCTL = target: T1, QPCTL (Homo sapiens, UniProt Q9NXS2); assay: Assay A: biochemical QPCTL activity assay (MALDI-TOF MS, CD47 peptide substrate); conditions: compounds of the invention; 0.5 nM enzyme, 10 μM CD47 peptide substrate; read-out: Inhibition of QPCTL: IC50
T1 construct: made in house
Method: (§4) QPCT or QPCTL dependent conversion of N-terminal glutamine to pyroglutamate of CD47 was monitored via MALDI-TOF MS. Test compounds were dissolved in 100% DMSO and serially diluted into clear 1,536-well microtiter plates. Enzymatic reactions were set up in assay buffer containing 20 mM Tris pH 7.5, 0.1 mM TCEP, 0.01% BSA, and 0.001% Tween20. […] The plates were incubated for 10 min in a humidified incubator at 24° C. Subsequently, 2.5 μL of CD47 peptide substrate surrogate (^19[…]^33) was added to each well (final concentration: 10 μM for QPCTL/20 μM for QPCT). The plates were mixed for 30 sec at 1,000 rpm and subsequently incubated for 40 min in a humidified incubator at 24° C. […] The plates were sealed with an adhesive foil, mixed for 30 s at 1,000 rpm and stored at room temperature until preparation of the MALDI target plates. […] QPCT or QPCTL activity was monitored by calculating the ratio between product and internal standard signals followed by normalization to high (100% activity) and low (0% activity) controls. Determination of compound potencies was obtained by fitting the dose-response data to a four-parameter logistical equation.

QPCT = target: T2, QPCT (Homo sapiens, UniProt Q16769); assay: Assay A: biochemical QPCT activity assay (MALDI-TOF MS, CD47 peptide substrate); conditions: compounds of the invention; 0.5 nM enzyme, 20 μM CD47 peptide substrate; read-out: Inhibition of QPCT: IC50
T2 construct: purchased Origine (so in the source)
Method: as §4

[4] = compounds of the invention, A549 cells 48 h, Jurkat PathHunter SIRPαV1 reporter cells 5 h, read-out: Inhibition of SIRPα signalling induced by A549 cells: IC50
[5] = compounds of the invention, Raji cells 48 h, Jurkat PathHunter SIRPαV1 reporter cells 5 h
[6] = pH 7.2, compounds of the invention, Caco-2, permeability B-A / permeability A-B
[7] = compounds of the invention, Caco-2, apical to basolateral, pH 7.2

T2 sequence (Q16769 29-361): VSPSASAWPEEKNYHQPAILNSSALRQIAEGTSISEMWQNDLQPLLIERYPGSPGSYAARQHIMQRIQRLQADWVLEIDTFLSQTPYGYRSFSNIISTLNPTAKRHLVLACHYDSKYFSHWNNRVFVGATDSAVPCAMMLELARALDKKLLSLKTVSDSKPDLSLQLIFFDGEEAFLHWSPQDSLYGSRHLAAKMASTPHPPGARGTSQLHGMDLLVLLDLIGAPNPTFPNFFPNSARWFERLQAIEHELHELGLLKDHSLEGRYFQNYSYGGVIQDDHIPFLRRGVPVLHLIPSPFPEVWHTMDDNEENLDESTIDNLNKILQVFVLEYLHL
T1 sequence (Q9NXS2 whole entry): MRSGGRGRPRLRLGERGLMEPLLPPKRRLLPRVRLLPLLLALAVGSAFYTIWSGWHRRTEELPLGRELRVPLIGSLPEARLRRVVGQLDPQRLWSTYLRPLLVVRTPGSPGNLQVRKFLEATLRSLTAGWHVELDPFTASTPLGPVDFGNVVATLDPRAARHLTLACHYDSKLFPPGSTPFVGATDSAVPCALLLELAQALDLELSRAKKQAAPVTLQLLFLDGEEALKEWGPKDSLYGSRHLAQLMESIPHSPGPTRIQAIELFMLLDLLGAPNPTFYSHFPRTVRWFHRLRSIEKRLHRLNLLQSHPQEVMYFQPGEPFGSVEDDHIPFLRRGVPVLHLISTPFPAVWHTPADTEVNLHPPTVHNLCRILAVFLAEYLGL

SMILES | IC50 ([1]; prior art compounds, A549 cells 48 h, Jurkat PathHunter SIRPαV1 reporter cells 5 h, read-out: Inhibition of SIRPα signalling induced by A549 cells: IC50) | IC50 ([2]; prior art compounds, Raji cells 48 h, Jurkat PathHunter SIRPαV1 reporter cells 5 h) | Papp A→B at 2 h ([3]; Caco-2, pH 7.2) | efflux ratio at 2 h ([3]; Caco-2, pH 7.2) | IC50 [1, 4] | IC50 (QPCTL) | IC50 [2, 5] | IC50 (QPCT) | efflux ratio at 2 h [3, 6] | Papp A→B at 2 h [3, 7] | IC50 ([1]; A549, read-out: Inhibition of SIRPα signalling induced by A549 cells: IC50) | IC50 ([2]; Raji)
Cn1cnnc1C1CCN(S(=O)(=O)c2cccc(Nc3ccc(OCc4ccccc4)nc3)c2)CC1 [Compound 23] | > 10000 nM | > 10000 nM |  |  |  |  |  |  |  |  |  | 
Nc1ncc(C2CCN(c3ncccc3-c3ccc(F)nc3)CC2)s1 [Compound 1094] |  |  | 73 ×10⁻⁶ cm/s | 1 |  |  |  |  |  |  |  | 
Nc1nnc(C2CCN(c3ncccc3-c3ccc(F)nc3)CC2)s1 [Compound 1095] |  |  | 68 ×10⁻⁶ cm/s | 0.5 |  |  |  |  |  |  |  | 
Cn1cnnc1C1(F)CCN(c2c(C#N)cc(C(F)(F)F)nc2-c2cnc3nn(C(C)(C)C)cc3c2)CC1 [Example 1] |  |  |  |  | 17 nM | 1 nM | 9 nM | 1 nM | 6.4 | 5.3 ×10⁻⁶ cm/s |  | 
Cn1cnnc1C1(F)CCN(c2c(C#N)cc(C(F)(F)F)nc2-c2cnc3nn(C(C)(C)C)c(F)c3c2)CC1 [Example 2] |  |  |  |  | 53 nM | 1 nM | 17 nM | 1 nM | 4.9 | 16 ×10⁻⁶ cm/s |  | 
Cn1cnnc1C1(F)CCN(c2c(C#N)cc(C(F)(F)F)nc2-c2cnc3nn(C(C)(C)C)c(Cl)c3c2)CC1 [Example 3] |  |  |  |  | 28 nM | 1 nM | 14 nM | 1 nM | 1 | 47 ×10⁻⁶ cm/s |  | 
Cn1cnnc1C1(F)CCN(c2c(C#N)cc(C(F)(F)F)nc2-c2cnc3nn(C(C)(C)C)c(C(F)(F)F)c3c2)CC1 [Example 4] |  |  |  |  | 46 nM | 9 nM | 31 nM | 5 nM | 0.6 | 99.5 ×10⁻⁶ cm/s |  | 
Cn1cnnc1C1(F)CCN(c2c(C#N)cc(C(F)(F)F)nc2-c2cnc3nn(C(F)(F)F)cc3c2)CC1 [Example 5] |  |  |  |  | 67 nM | 2 nM | 41 nM | 4 nM | 8.2 | 6.1 ×10⁻⁶ cm/s |  | 
Cn1cnnc1C1(F)CCN(c2c(C#N)cc(C(F)(F)F)nc2-c2cnc3nn(C(C)(C)C(F)(F)F)cc3c2)CC1 [Example 6] |  |  |  |  | 50 nM | 2 nM | 26 nM | 2 nM | 10.1 | 7.2 ×10⁻⁶ cm/s |  | 
CC(C)n1nc2ncc(-c3nc(C(F)(F)F)cc(C#N)c3N3CCC(F)(c4nncn4C)CC3)cc2c1F [Example 7] |  |  |  |  | 39 nM | 2 nM | 26 nM | 2 nM | 11.9 | 5.8 ×10⁻⁶ cm/s |  | 
Cn1cnnc1C1(F)CCN(c2c(C#N)cc(C(F)(F)F)nc2-c2cnc3nn(C(C)(C)C)nc3c2)CC1 [Example 8] |  |  |  |  | 29 nM | 5 nM | 67 nM | 4 nM | 2.6 | 31 ×10⁻⁶ cm/s |  | 
Cn1cnnc1C1(F)CCN(c2c(C#N)cc(C(F)(F)F)nc2-c2cnc3nn(C(F)(F)F)nc3c2)CC1 [Example 9] |  |  |  |  | 365 nM | 56 nM | 869 nM | 100 nM | 1.4 | 45 ×10⁻⁶ cm/s |  | 
Cn1cnnc1C1(F)CCN(c2c(C#N)cc(C(F)(F)F)nc2-c2cnc(F)cc2Cl)CC1 [Example 10] |  |  |  |  | 201 nM | 10 nM | 352 nM | 27 nM | 1.2 | 58 ×10⁻⁶ cm/s |  | 
Cn1cnnc1C1(F)CCN(c2c(C#N)cc(C(F)(F)F)nc2-c2cnc3nc(C(C)(C)C)nn3c2)CC1 [Example 11] |  |  |  |  | 29 nM | 3 nM | 47 nM | 3 nM | 14.9 | 4.3 ×10⁻⁶ cm/s |  | 
Cn1cnnc1C1(F)CCN(c2c(C#N)cc(C(F)(F)F)nc2-c2cnc3nc(C(F)(F)F)nn3c2)CC1 [Example 12] |  |  |  |  | 599 nM | 24 nM | 860 nM | 29 nM | 6.9 | 4.9 ×10⁻⁶ cm/s |  | 
Cn1cnnc1C1CCN(c2c(C#N)cc(C(F)(F)F)nc2-c2cnc3nn(C(C)(C)C)c(C(F)(F)F)c3c2)CC1 [Example 13] |  |  |  |  | 70 nM | 8 nM | 54 nM | 16 nM | 5.7 | 3.7 ×10⁻⁶ cm/s |  | 
Cn1cnnc1C1(F)CCN(c2c(C#N)ccnc2-c2cnc3nn(C(C)(C)C)c(Cl)c3c2)CC1 [Example 14] |  |  |  |  | 12 nM | 1 nM | 21 nM | < 1 nM | 6.9 | 12 ×10⁻⁶ cm/s |  | 
Cn1cnnc1C1(F)CCN(c2c(C#N)ccnc2-c2cnc3nn(C(C)(C)C)c(C(F)(F)F)c3c2)CC1 [Example 15] |  |  |  |  | 66 nM | 4 nM | 69 nM | 3 nM | 1.6 | 35 ×10⁻⁶ cm/s |  | 
Cn1cnnc1C1(F)CCN(c2c(C#N)ccnc2-c2cnc3nn(C(F)(F)F)cc3c2)CC1 [Example 16] |  |  |  |  | 9 nM | 1 nM | 37 nM | 1 nM | 7.7 | 3.1 ×10⁻⁶ cm/s |  | 
Cn1cnnc1C1CCN(c2ncccc2-c2ccc(F)nc2)CC1 [SEN177, reference compound] |  |  | 11 ×10⁻⁶ cm/s |  |  |  |  |  |  |  | 214 nM | 1360 nM
Cn1cnnc1C1CCN(c2ncccc2-c2cccnc2)CC1 [SEN180, reference compound] |  |  | 4.2 ×10⁻⁶ cm/s |  |  |  |  |  |  |  |  | 
